Measurements taken from US9408387B2, “Safening 6-amino-2-(substituted phenyl)-5-substituted-4-pyrimidinecarboxylate herbicide injury on cereal crops” (Dow AgroSciences LLC, priority 2009, dated 2016).

Legend:
Format in all cases: in vivo
[1] = tested on: durum wheat (Triticum durum L; TRZDU); assay: Postemergence herbicidal safening in cereal crops, greenhouse, visual injury: durum wheat; conditions: 20-22 d
Description: (§1) Evaluation of Postemergence Herbicidal Safening in Cereal Crops
(§2) Seeds of the desired test plant species were planted in Sun Gro MetroMix® 306 planting mixture, which typically has a pH of 6.0 to 6.8 and an organic matter content of about 30 percent, in plastic pots with a surface area of 103.2 square centimeters (cm^2). When required to ensure good germination and healthy plants, a fungicide treatment and/or other chemical or physical treatment was applied. The plants were grown for 7-36 days (d) in a greenhouse with an approximate 14-hour (h) photoperiod which was maintained at about 18° C. during the day and 17° C. during the night. Nutrients and water were added on a regular basis and supplemental lighting was provided with overhead metal halide 1000-Watt lamps as necessary. The plants were employed for testing when they reached the second or third true leaf stage.
(§3) Treatments consisted of the acids or esters of compounds 1-10 and cloquintocet-mexyl (CQC-M), fenchlorazole-ethyl, mefenpyr-diethyl alone and in combination. Weighed amounts of acid or methyl esters of the compounds of formula (I) were dissolved in a volume of 97:3 v/v acetone/dimethylsulfoxide (DMSO) to obtain concentrated solutions. […] The concentrated solutions of the test compound were diluted with the addition of an aqueous mixture containing acetone, water, isopropyl alcohol, DMSO, Agri-Dex crop oil concentrate, and Triton® X-77 surfactant in a 64.7:26.0:6.7:2.0:0.7:0.01 v/v ratio. Test compounds were diluted to the appropriate application rate with a dilution solution which was prepared by mixing the appropriate volume of 97:3 v/v acetone/DMSO and the appropriate volume of an aqueous mixture containing acetone, water, isopropyl alcohol, DMSO, Agri-Dex crop oil concentrate, and Triton® X-77 surfactant in a 64.7:26.0:6.7:2.0:0.7:0.01 v/v ratio. Compound requirements are based upon a 12 mL application volume at a rate of 187 liters per hectare (L/ha). The concentrated solutions of the safener were prepared following the same procedure. Weighed amounts of safener were dissolved in a volume of 97:3 v/v acetone/DMSO to obtain concentrated safener solutions.
(§4) Spray solutions of the herbicide safener and test compound mixtures were prepared by adding the concentrated solutions to the appropriate amount of dilution solution to form 12 mL spray solution with active ingredients in combinations.
(§5) Formulated compounds were applied to the plant material with an overhead Mandel track sprayer equipped with 8002E nozzles calibrated to deliver 187 L/ha over an application area of 0.503 square meters (m^2) at a spray height of 18 inches (43 centimeters (cm)) above average plant canopy. Control plants were sprayed in the same manner with the solvent blank.
(§6) The treated plants and control plants were placed in a greenhouse as described above and watered by sub-irrigation to prevent wash-off of the test compounds. After 20-22 d, the condition of the test plants as compared with that of the control plants was determined visually and scored on a scale of 0 to 100 percent where 0 corresponds to no injury and 100 corresponds to complete kill.
(§7) Colby's equation was used to determine the herbicidal effects expected from the mixtures (Colby, S. R. Calculation of the synergistic and antagonistic response of herbicide combinations. Weeds 1967, 15, 20-22.).
(§8) The following equation was used to calculate the expected activity of mixtures containing two active ingredients, A and B: Expected=A+B−(A×B/100)
(§9) A=observed efficacy of active ingredient A at the same concentration as used in the mixture.
(§10) B=observed efficacy of active ingredient B at the same concentration as used in the mixture.

[2] = tested on: winter wheat (Triticum aestivum L; TRZAW); assay: Postemergence herbicidal safening in cereal crops, greenhouse, visual injury: winter wheat; conditions: 20-22 d
Description: as §1, §2, §3, §4, §5, §6, §7, §8, §9, §10

[3] = tested on: spring barley (Hordeum vulgare L; HORVS); assay: Postemergence herbicidal safening in cereal crops, greenhouse, visual injury: spring barley
Description: as §1, §2, §3, §4, §5, §6, §7, §8, §9, §10

GALAP = assay: Postemergence herbicidal activity, greenhouse, visual injury: GALAP; conditions: 20-22 d
Description: as §1, §2, §3, §4, §5, §6, §7
The following equation was used to calculate the expected activity of mixtures containing two active ingredients, A and B: Expected=A+B−(A×B/100) […]

[4] = tested on: winter barley (Hordeum vulgare L; HORVW); assay: Postemergence herbicidal safening in cereal crops, greenhouse, visual injury: winter barley; conditions: 20-22 d
Description: as §1, §2, §3, §4, §5, §6, §7, §8, §9, §10

[5] = tested on: bird's-eye speedwell (Veronica persica L; VERPE); assay: Postemergence herbicidal activity, greenhouse, visual injury: bird's-eye speedwell
Description: as §1, §2, §3, §4, §5, §6, §7, §8, §9, §10

CIRAR = assay: Postemergence herbicidal activity, greenhouse, visual injury: CIRAR; conditions: for CIRAR Ob (visual injury): 20-22 d
Description: as §1, §2, §3, §4, §5, §6, §7, §8, §9, §10

[6] = tested on: corn poppy (Papaver rhoeas L; PAPRH); assay: Postemergence herbicidal activity, greenhouse, visual injury: corn poppy; conditions: for PAPRH Ob (visual injury): 20-22 d
Description: as §1, §2, §3, §4, §5, §6, §7, §8, §9, §10

[7] = tested on: purple deadnettle (Lamium purpureum L; LAMPU); assay: Postemergence herbicidal activity, greenhouse, visual injury: purple deadnettle
Description: as §1, §2, §3, §4, §5, §6, §7, §8, §9, §10

MATCH = assay: Postemergence herbicidal activity, greenhouse, visual injury: MATCH; conditions: for MATCH Ob (visual injury): 20-22 d
Description: as §1, §2, §3, §4, §5, §6, §7, §8, §9, §10

[8] = tested on: wild mustard (Sinapis arvensis L.; SINAR); assay: Postemergence herbicidal activity, greenhouse, visual injury: SINAR
[9] = Compound 10 0, CQC-M 8.75 g ae/ha
[10] = Compound 10 0, CQC-M 17.5 g ae/ha
[11] = Compound 10 0, CQC-M 35 g ae/ha
[12] = Compound 10 0, CQC-M 70 g ae/ha
[13] = Compound 10 0, CQC-M 140 g ae/ha

SMILES: CCCCCC(C)OC(=O)COc1ccc(Cl)c2cccnc12 (centres unmarked) [CQC-M, cloquintocet-mexyl, reference compound]
- TRZDU Ob (visual injury) ([1]; safener alone 0.547 g/ha): 0%
- TRZDU Ob (visual injury) ([1]; safener alone 2.1875 g/ha): 0%
- TRZDU Ob (visual injury) ([1]; safener alone 8.75 g/ha): 0%
- TRZDU Ob (visual injury) ([1]; safener alone 35 g/ha): 0%
- TRZDU Ob (visual injury) ([1]; safener alone 70 g/ha): 15%
- TRZDU Ob (visual injury) ([1]; safener alone 140 g/ha): 20%
- TRZAW Ob (visual injury) ([2]; safener alone 0.547 g/ha): 0%
- TRZAW Ob (visual injury) ([2]; safener alone 2.1875 g/ha): 0%
- TRZAW Ob (visual injury) ([2]; safener alone 8.75 g/ha): 0%
- TRZAW Ob (visual injury) ([2]; safener alone 35 g/ha): 0%
- TRZAW Ob (visual injury) ([2]; safener alone 70 g/ha): 0%
- TRZAW Ob (visual injury) ([2]; safener alone 140 g/ha): 0%
- pest or weed control at 0.547 g/ha ([3]; Hordeum vulgare, post-emergence, 480 h, safener alone 0.547 g/ha, 20-22 d, read-out: HORVS Ob (visual injury)): 0%
- pest or weed control at 2.1875 g/ha ([3]; Hordeum vulgare, post-emergence, 480 h, safener alone 2.1875 g/ha, 20-22 d, read-out: HORVS Ob (visual injury)): 0%
- pest or weed control at 8.75 g/ha ([3]; Hordeum vulgare, post-emergence, 480 h, safener alone 8.75 g/ha, 20-22 d, read-out: HORVS Ob (visual injury)): 0%
- HORVS Ob (Observed values, % control) ([3]; in vivo): 0%
- GALAP Ob (visual injury) (GALAP; safener alone 35 g/ha): 0%
- GALAP Ob (visual injury) (GALAP; safener alone 70 g/ha): 0%
- GALAP Ob (visual injury) (GALAP; safener alone 140 g/ha): 0%
- HORVW Ob (visual injury) ([4]; safener alone 0.547 g/ha): 0%
- HORVW Ob (visual injury) ([4]; safener alone 2.1875 g/ha): 0%
- HORVW Ob (visual injury) ([4]; safener alone 8.75 g/ha): 0%
- HORVW Ob (visual injury) ([4]; safener alone 35 g/ha): 0%
- HORVW Ob (visual injury) ([4]; safener alone 70 g/ha): 0%
- HORVW Ob (visual injury) ([4]; safener alone 140 g/ha): 0%
- VERPE Ob (Observed values, % control) [5, 9]: 0%
- VERPE Ob (Observed values, % control) [5, 10]: 0%
- VERPE Ob (Observed values, % control) [5, 11]: 0%
- VERPE Ob (Observed values, % control) [5, 12]: 0%
- VERPE Ob (Observed values, % control) [5, 13]: 0%
- VERPE Ob (visual injury) ([5]; safener alone 8.75 g/ha, 20-22 d): 0%
- CIRAR Ob (Observed values, % control) (CIRAR; [9]): 0%
- CIRAR Ob (Observed values, % control) (CIRAR; [10]): 0%
- CIRAR Ob (Observed values, % control) (CIRAR; [11]): 0%
- CIRAR Ob (Observed values, % control) (CIRAR; [12]): 0%
- CIRAR Ob (Observed values, % control) (CIRAR; [13]): 0%
- CIRAR Ob (visual injury) (CIRAR; safener alone 70 g/ha): 0%
- CIRAR Ob (visual injury) (CIRAR; safener alone 140 g/ha): 0%
- PAPRH Ob (Observed values, % control) [6, 9]: 0%
- PAPRH Ob (Observed values, % control) [6, 10]: 0%
- PAPRH Ob (Observed values, % control) [6, 11]: 0%
- PAPRH Ob (Observed values, % control) [6, 12]: 0%
- PAPRH Ob (Observed values, % control) [6, 13]: 0%
- PAPRH Ob (visual injury) ([6]; safener alone 8.75 g/ha): 0%
- PAPRH Ob (visual injury) ([6]; safener alone 70 g/ha): 0%
- PAPRH Ob (visual injury) ([6]; safener alone 140 g/ha): 0%
- LAMPU Ob (Observed values, % control) [7, 9]: 0%
- LAMPU Ob (Observed values, % control) [7, 10]: 0%
- LAMPU Ob (Observed values, % control) [7, 11]: 0%
- LAMPU Ob (Observed values, % control) [7, 12]: 0%
- LAMPU Ob (Observed values, % control) [7, 13]: 0%
- pest or weed control at 35 g/ha ([7]; Lamium purpureum, post-emergence, 480 h, safener alone 35 g/ha, 20-22 d, read-out: LAMPU Ob (visual injury)): 0%
- pest or weed control at 140 g/ha ([7]; Lamium purpureum, post-emergence, 480 h, safener alone 140 g/ha, 20-22 d, read-out: LAMPU Ob (visual injury)): 0%
- MATCH Ob (Observed values, % control) (MATCH; [9]): 0%
- MATCH Ob (Observed values, % control) (MATCH; [10]): 0%
- MATCH Ob (Observed values, % control) (MATCH; [11]): 0%
- MATCH Ob (Observed values, % control) (MATCH; [12]): 0%
- MATCH Ob (Observed values, % control) (MATCH; [13]): 0%
- MATCH Ob (visual injury) (MATCH; safener alone 70 g/ha): 0%
- MATCH Ob (visual injury) (MATCH; safener alone 140 g/ha): 0%
- SINAR Ob (Observed values, % control) [8, 9]: 0%
- SINAR Ob (Observed values, % control) [8, 10]: 0%
- SINAR Ob (Observed values, % control) [8, 11]: 0%
- SINAR Ob (Observed values, % control) [8, 12]: 0%
- SINAR Ob (Observed values, % control) [8, 13]: 0%
